Experimental findings from US6472391B2, “Nitrogen-containing heterocyclic compounds” (Millennium Pharmaceuticals, Inc., priority 1996, dated 2002) are described below.

`CC(C)c1ccc(NC(=O)N2CCN(c3ncnc4c(I)cc(I)cc34)CC2)cc1` [Compound 379, 4-(6,8-Diiodo-4-quinazolinyl)-N-(4-isopropylphenyl)-1-piperazinecarboxamide] registered a melting point of 267 to 269 °C.

`COC(=O)c1sccc1NC(=S)N1CCN(c2ncnc3cc(OC)c(OC)cc23)CC1` [Compound 260, 4-(6,7-Dimethoxy-4-quinazolinyl)-N-(2-methoxycarbonyl-3-thienyl)-1-piperazinethiocarboxamide] registered a melting point of 226 to 228 °C.

Turning to `CCn1c(=O)n(CC)c2cc3c(N4CCN(C(=O)Nc5ccc(Oc6ccccc6)cc5)CC4)nnc(Cl)c3cc21` [Compound 421, 4-(5-Chloro-1,3-diethyl-1,3-dihydro-2-oxo-2H-imidazo[4,5-g]phthalazin-8-yl)-N-(4-phenoxyphenyl)-1-piperazinecarboxamide], the melting point was in the range of 172 to 173 °C.

Turning to `CC(=O)c1ccc(NC(=O)N2CCN(c3ncnc4c(Cl)cc(Cl)cc34)CC2)cc1` [Compound 378, N-(4-Acetylphenyl)-4-(6,8-dichloro-4-quinazolinyl)-1-piperazinecarboxamide], the melting point was 187 to 188 °C.

Consider `O=C(Nc1ccc(Oc2ccccc2)cc1)N1CCN(c2ncnc3cc4ccccc4cc23)CC1` [Compound 363, 4-(4-Benzo[g]quinazolinyl)-N-(4-phenoxyphenyl)-1-piperazinecarboxamide], for which the melting point fell in the range of 105 to 108 °C.

Regarding `O=[N+]([O-])c1cc2c(N3CCN(C(=S)NCc4ccccc4)CC3)ncnc2cc1Cl` [Compound 358, N-Benzyl-4-(7-chloro-6-nitro-4-quinazolinyl)-1-piperazinethiocarboxamide], the melting point lay in the range of 93 to 95 °C.

In the case of `COc1cc2nc(-c3ccccc3)nc(N3CCN(C(=O)Nc4ccc([N+](=O)[O-])cc4)CC3)c2cc1OC` [Compound 111, 4-(6,7-Dimethoxy-2-phenyl-4-quinazolinyl)-N-(4-nitrophenyl)-1-piperazinecarboxamide], the melting point was in the range of 156 to 157 °C.

`COc1cc2ncnc(N3CCN(C(=O)Nc4cccc(I)c4)CC3)c2cc1OC` [Compound 186, 4-(6,7-Dimethoxy-4-quinazolinyl)-N-(3-iodophenyl)-1-piperazinecarboxamide] had a melting point of 205 to 208 °C.

In turn, `CC(=O)c1ccc(NC(=O)N2CCN(c3ncnc4c(Cl)cccc34)CC2)cc1` [Compound 325, N-(4-Acetylphenyl)-4-(8-chloro-4-quinazolinyl)-1-piperazinecarboxamide] had a melting point of 208 to 209 °C.

For the compound `CCn1c(=O)n(C)c2cc3c(N4CCN(C(=O)Nc5ccc(Oc6ccccc6)cc5)CC4)ncnc3cc21` [Compound 387, 4-(1,3-Dihydro-3-ethyl-1-methyl-2-oxo-2H-imidazo[4,5-g]quinazolin-8-yl)-N-(4-phenoxyphenyl)-1-piperazinecarboxamide], the melting point was 250 to 251 °C.

Turning to `CCSc1ccc(NC(=O)N2CCN(c3ncnc4cc(OC)c(OC)cc34)CC2)cc1` [Compound 219, 4-(6,7-Dimethoxy-4-quinazolinyl)-N-(4-ethylthiophenyl)-1-piperazinecarboxamide], the melting point lay in the range of 208 to 209 °C.

`S=C(NCc1ccccc1)N1CCN(c2ncnc3cc(Cl)ccc23)CC1` [Compound 317, N-Benzyl-4-(7-chloro-4-quinazolinyl)-1-piperazinethiocarboxamide]: the melting point fell in the range of 70 to 71 °C.

With `COc1cc2ncnc(N3CCN(C(=O)Nc4cccc(C(C)C)c4)CC3)c2cc1OC` [Compound 150, 4-(6,7-Dimethoxy-4-quinazolinyl)-N-(3-isopropylphenyl)-1-piperazinecarboxamide], the melting point was in the range of 196 to 197 °C.

On to `COc1cc2ncnc(N3CCN(C(=O)Nc4cccc(C(F)(F)F)c4)CC3)c2cc1OC` [Compound 162, 4-(6,7-Dimethoxy-4-quinazolinyl)-N-(3-trifluoromethylphenyl)-1-piperazinecarboxamide], for which the melting point was in the range of 180 to 181 °C.

On to `COc1cc2ncnc(N3CCN(C(=S)NCc4ccc(C(F)(F)F)cc4)CC3)c2cc1OC` [Compound 161, 4-(6,7-Dimethoxy-4-quinazolinyl)-N-(4-trifluoromethylbenzyl)-1-piperazinethiocarboxamide], for which the melting point lay within 216 to 217 °C.

Turning to `CCC[C@H]1CC[C@H](c2ccc(NC(=S)N3CCN(c4ncnc5cc(OC)c(OC)cc45)CC3)cc2)CC1` [Compound 169, 4-(6,7-Dimethoxy-4-quinazolinyl)-N-[trans-4-(4-propylcyclohexyl)phenyl]-1-piperazinethiocarboxamide], the melting point fell in the range of 106 to 109 °C.

`COc1cc2ncnc(N3CCN(C(=S)Nc4ccc(C(C)=O)cc4)CC3)c2cc1OC` [Compound 242, N-(4-Acetylphenyl)-4-(6,7-dimethoxy-4-quinazolinyl)-1-piperazinethiocarboxamide] returned a melting point of 256 to 257 °C.

Turning to `COc1ccc(OC)c(NC(=O)N2CCN(c3ncnc4cc(OC)c(OC)cc34)CC2)c1` [Compound 65, N-(2,5-Dimethoxyphenyl)-4-(6,7-Dimethoxy-4-quinazolinyl)-1-piperazinecarboxamide], the melting point was in the range of 215 to 217 °C.

`COc1cc2ncnc(N3CCN(C(=O)NCc4cnc(C)cn4)CC3)c2cc1OC` [Compound 278, 4-(6,7-Dimethoxy-4-quinazolinyl)-N-(5-methyl-2-pyrazinylmethyl)-1-piperazinecarboxamide] came in with a melting point of 202 to 204 °C.

Compound `COc1cc2ncnc(N3CCN(C(=S)Nc4ccc([N+](=O)[O-])cc4)CC3)c2cc1OC` [Compound 80, 4-(6,7-Dimethoxy-4-quinazolinyl)-N-(4-nitrophenyl)-1-piperazinethiocarboxamide] yielded a melting point of 221 to 224 °C.

Compound `COc1cc2c(N3CCN(C(=O)Nc4ccc(Oc5ccccc5)cc4)CC3)ncnc2cc1C` [Compound 333, 4-(6-Methoxy-7-methyl-4-quinazolinyl)-N-(4-phenoxyphenyl)-1-piperazinecarboxamide] registered a melting point of 188 to 189 °C.

`COc1cc2ncnc(N3CCN(C(=S)NC(=O)c4ccc(Cl)cc4)CC3)c2cc1OC` [Compound 179, N-(4-Chlorobenzoyl)-4-(6,7-dimethoxy-4-quinazolinyl)-1-piperazinethiocarboxamide] had a melting point of 166 to 168 °C.

Regarding `COc1cc2ncnc(N3CCN(C(=O)Nc4ccc(OC(F)(F)F)cc4)CC3)c2cc1OC` [Compound 59, 4-(6,7-Dimethoxy-4-quinazolinyl)-N-[4-(trifluoromethoxy)phenyl]-1-piperazinecarboxamide], the melting point was in the range of 204 to 205 °C.

In the case of `COc1cccc2c(N3CCN(C(=O)Nc4ccc(C(C)C)cc4)CC3)ncnc12` [Compound 326, N-(4-Isopropylphenyl)-4-(8-methoxy-4-quinazolinyl)-1-piperazinecarboxamide], the melting point fell in the range of 102 to 104 °C.

`COc1cc2ncnc(N3CCN(C(=S)Nc4ccc5c(c4)OCO5)CC3)c2cc1OC` [Compound 68, 4-(6,7-Dimethoxy-4-quinazolinyl)-N-(3,4-methylenedioxyphenyl)-1-piperazinethiocarboxamide] returned a melting point of 207 to 211 °C.

Compound `C=Cc1ccc(NC(=O)N2CCN(c3ncnc4cc(OC)c(OC)cc34)CC2)cc1` [Compound 164, 4-(6,7-Dimethoxy-4-quinazolinyl)-N-(4-vinylphenyl)-1-piperazinecarboxamide] gave a melting point of 214 to 216 °C.

Consider `Cl.Cl.S=C(NCc1cccnc1)N1CCN(c2ncnc3cccc(Cl)c23)CC1`, for which the melting point was 150 to 152 °C.

`COc1cc2ncnc(N3CCN(C(=O)Nc4ccccc4Cl)CC3)c2cc1OC` [Compound 38, N-(2-Chlorophenyl)-4-(6,7-dimethoxy-4-quinazolinyl)-1-piperazinecarboxamide] registered a melting point of 186 to 187 °C.

For `CCc1cccc(NC(=O)N2CCN(c3ncnc4cc(OC)c(OC)cc34)CC2)c1` [Compound 148, 4-(6,7-Dimethoxy-4-quinazolinyl)-N-(3-ethylphenyl)-1-piperazinecarboxamide], the melting point fell in the range of 207 to 208 °C.

Turning to `CCOc1cc2c(N3CCN(C(=S)NCc4cccnc4)CC3)ncnc2cc1OC` [Compound 349, 4-(6-Ethoxy-7-methoxy-4-quinazolinyl)-N-(3-picolyl)-1-piperazinethiocarboxamide], the melting point fell in the range of 208 to 209 °C.

In turn, `COc1cc2ncnc(N3CCN(C(=S)Nc4cccc(C)c4)CC3)c2cc1OC` [Compound 145, 4-(6,7-Dimethoxy-4-quinazolinyl)-N-(3-tolyl)-1-piperazinethiocarboxamide] displayed a melting point of 199 to 201 °C.

In the case of `COc1cc2ncnc(N3CCN(C(=S)NCc4ccc(N(C)C)cc4)CC3)c2cc1OC` [Compound 224, 4-(6,7-Dimethoxy-4-quinazolinyl)-N-(4-dimethylaminobenzyl)-1-piperazinethiocarboxamide], the melting point lay within 177 to 178 °C.

On to `COc1cc2ncnc(N3CCN(C(=O)Nc4ccc(OC(C)=O)cc4)CC3)c2cc1OC` [Compound 216, N-(4-Acetoxyphenyl)-4-(6,7-dimethoxy-4-quinazolinyl)-1-piperazinecarboxamide], for which the melting point was in the range of 197 to 199 °C.

With `COc1cc2ncnc(N3CCN(C(=S)Nc4ccncc4)CC3)c2cc1OC` [Compound 268, 4-(6,7-Dimethoxy-4-quinazolinyl)-N-(4-pyridyl)-1-piperazinethiocarboxamide], the melting point was in the range of 218 to 220 °C.

Compound `COc1cc2ncnc(N3CCN(C(=S)NC(=O)C=Cc4ccccc4)CC3)c2cc1OC` [Compound 143, N-Cinnamoyl-4-(6,7-dimethoxy-4-quinazolinyl)-1-piperazinethiocarboxamide] registered a melting point of 184 to 186 °C.

`COc1cc2ncnc(N3CCN(C(=S)NCc4cccc5ccccc45)CC3)c2cc1OC` [Compound 132, 4-(6,7-Dimethoxy-4-quinazolinyl)-N-(1-naphthylmethyl)-1-piperazinethiocarboxamide]: the melting point fell in the range of 164 to 165 °C.

Consider `COc1cc2ncnc(N3CCN(C(=S)N[C@@H](C)c4ccccc4)CC3)c2cc1OC` [Compound 129, (S)-4-(6,7-Dimethoxy-4-quinazolinyl)-N-(1-phenylethyl)-1-piperazinethiocarboxamide], for which the melting point is 98 to 100 °C.
